The values below come from patent US20160333006A1, “ARYL LACTA KINASE INHIBITORS” (Bristol-Myers Squibb Company, priority 2014, published 2016).

As a reminder, the IC50 is the concentration needed to halve the response being measured.

One experiment deals with mice. Kind of experiment: formalin paw test. Type of experiment: in vivo, mouse. Here is the method: AAK1 homozygous (−/−) and their wild-type (+/+) littermates were tested using the formalin paw test in order to assess their acute and tonic nociceptive responses. For these tests, Automatic Nociception Analyzers (purchased from the Ozaki lab at University of California, San Diego) were used. A metal band was placed around the left hind paw of each mouse 30 minutes prior to testing. After the 30-minute acclimation period, 20 μl of 5% formalin is subcutaneously injected in the dorsal surface of the left hind paw. Mice were individually housed in cylindrical chambers for 45 minutes. Fresh 5% formalin solution was prepared by diluting formaldehyde (Formalde-fresh 20%, Fisher Scientific, Fair Lawn, N.J.) with distilled water. Investigatory compounds were administered 30 minutes prior to formalin injection.
A computer recorded flinches per minute, total flinches for phase I (acute phase=first 8 minutes), and total flinches for phase II (tonic phase=time between minutes 20-40) through an electromagnetic field. See Yaksh T L, Ozaki G, McCumber D, Rathbun M, Svensson C, Malkmus S, Yaksh M C. An automated flinch detecting system for use in the formalin nociceptive bioassay. J Appl Physiol., 2001; 90:2386-402.
The same test was used to confirm that the administration of an AAK1 inhibitor can also affect pain response.
A compound of the disclosure was tested in this assay at different doses. Gabapentin and pregabalin were used as positive controls. Results are shown below in Table 2, wherein the effect of gabapentin at 200 mg/kg is considered a 100% response, the % response for the other compounds is relative to the 200 mg/kg dose of gabapentin, “sc” means subcutaneous administration; “po” means oral administration.

The next experiment concerns the target T1, GST-Xa-hAAK1 (Homo sapiens, UniProt Q2M2I8).
T1 construct: made in house
Kind of experiment: AAK1 kinase assay. The class given is biochemical. Conditions: ATP 22 μM. Here is the method:
The assays were performed in U-bottom 384-well plates. […] The reactions were initiated by the combination of bacterially expressed, GST-Xa-hAAK1 with substrates and test compounds. The reactions were incubated at room temperature for 3 hours and terminated by adding 60 μl of 35 mM EDTA buffer to each sample. The reactions were analyzed on the Caliper LabChip 3000 (Caliper, Hopkinton, Mass.) by electrophoretic separation of the fluorescent substrate and phosphorylated product. […] Compounds were dissolved at 10 mM in dimethylsulfoxide (DMSO) and evaluated at eleven concentrations. IC50 values were derived by non-linear regression analysis.

For experiment [1], the target named is T2, AAK1 (full length human) in HEK293F cells (Homo sapiens, UniProt Q2M2I8).
T2 construct: fused on or other part: HA tag (AAK1/HA in pIRES vector)
Kind of experiment: HEK281 cell-based assay (phospho-mu2 Western blot in transfected HEK293F cells). Conditions: 3 hours. Here is the method: On day one, cells were plated on a 10 cm dish so that they are ˜80% confluent at time oftransfection. Roughly 12 million cells were in a 10 cm dish at time of transfection. […] The DNA was comprised of a mixture (per 10 cm dish) containing 3 ug AAK1/HA/pIRES (full length human, NCBI accession no. NP_055726.2), 45 μg Flag/AP2MI/pcDNA (full length human), and 1.5 ml OPTI-MEM. The Lipofectamine 2000 is made up of a mixture (per 10 cm dish) containing 144 μl Lipofectamine 2000 and 1.5 ml OPTI-MEM. Each mixture was transferred to individual 15 ml tubes and incubated at RT for 5 minutes, and then the two mixes were combined and incubated at RT for 20 minutes. Growth media was then aspirated from each 10 cm plate and replaced with 10 ml of DMEM+10% FBS (no GPS). Finally, 3 ml DNA/Lipofectamine mix was added to each 10 cm dish and mix gently followed by incubate of plate overnight at 37° C. and 5% CO2.
On day three, compounds were diluted in 100% DMSO at 1000× final concentration, followed by 3-fold serial dilutions for a total of 5 concentrations tested. Four compounds were tested per 10 cm dish. One ul of each compound dilution was then pipetted into a deep-well, 96-well plate, followed by addition of 500 μl DMEM+0.5% FBS into each well for a 2× final concentration of each compound. Cells were resuspended in a 10 cm dish by simple pipetting (HEK293 cells come off the plate that easy at this point) and then transferred to a 50 ml conical tube and pelleted by centrifugation at 1000 rpm for 5 min. Cell pellets were then resuspended in 2.75 ml DMEM+0.5% FBS per 10 cm dish and 100 μl of cell suspension transferred into each well of 96-well TC plate. Finally, 100 μl of 2× compound diluted in DMEM+0.5% FBS was then added into wells containing cell suspension for a 1× final concentration. Plates were then incubated at 37° C. and 5% CO2 for 3 hours followed by transferring of cell suspensions from each well into 12-tube PCR strips. The PCR strips were spun in a tip rack at 1000 rpm for 5 minutes to pellet cells and media was then removed by pipetting without disturbing the cell pellet.
Five ul of 10× NuPage Sample Reducing Agent (with 50 mM DTT) was to each sample followed by heat denaturing at 70 C for 10 min on PCR machine. […] For controls, 2 ng of phospho-mu2 or 20 ng mu2/Flag proteins were loaded in the last well of each gel. After SDS-PAGE, samples on each gel were transferred to PVDF membrane using an iBlot and membranes were blocked for one hour in TBST+5% milk, followed by wash 3× for 5-10 min with TBST.
Finally, the camera was set up to take a picture every 30 seconds for 10 minutes and the best image saved for each blot with no saturated signal (when the signal is saturated, the bands will be highlighted red). A volume analysis on each band was performed to obtain density values. Percent inhibition was calculated for each sample by first normalizing to total Mu2 expression levels and then comparing to 0% and 100% controls. IC50 values were then calculated using Excel fitting software.

[2] abbreviates: phospho-mu2, given as IC50 range.
Setting [3] is: phospho-mu2 normalized to total Mu2.
[4] abbreviates: 50 mg/kg sc, relative to gabapentin 200 mg/kg = 100% response.

T1 sequence (Q2M2I8 whole entry): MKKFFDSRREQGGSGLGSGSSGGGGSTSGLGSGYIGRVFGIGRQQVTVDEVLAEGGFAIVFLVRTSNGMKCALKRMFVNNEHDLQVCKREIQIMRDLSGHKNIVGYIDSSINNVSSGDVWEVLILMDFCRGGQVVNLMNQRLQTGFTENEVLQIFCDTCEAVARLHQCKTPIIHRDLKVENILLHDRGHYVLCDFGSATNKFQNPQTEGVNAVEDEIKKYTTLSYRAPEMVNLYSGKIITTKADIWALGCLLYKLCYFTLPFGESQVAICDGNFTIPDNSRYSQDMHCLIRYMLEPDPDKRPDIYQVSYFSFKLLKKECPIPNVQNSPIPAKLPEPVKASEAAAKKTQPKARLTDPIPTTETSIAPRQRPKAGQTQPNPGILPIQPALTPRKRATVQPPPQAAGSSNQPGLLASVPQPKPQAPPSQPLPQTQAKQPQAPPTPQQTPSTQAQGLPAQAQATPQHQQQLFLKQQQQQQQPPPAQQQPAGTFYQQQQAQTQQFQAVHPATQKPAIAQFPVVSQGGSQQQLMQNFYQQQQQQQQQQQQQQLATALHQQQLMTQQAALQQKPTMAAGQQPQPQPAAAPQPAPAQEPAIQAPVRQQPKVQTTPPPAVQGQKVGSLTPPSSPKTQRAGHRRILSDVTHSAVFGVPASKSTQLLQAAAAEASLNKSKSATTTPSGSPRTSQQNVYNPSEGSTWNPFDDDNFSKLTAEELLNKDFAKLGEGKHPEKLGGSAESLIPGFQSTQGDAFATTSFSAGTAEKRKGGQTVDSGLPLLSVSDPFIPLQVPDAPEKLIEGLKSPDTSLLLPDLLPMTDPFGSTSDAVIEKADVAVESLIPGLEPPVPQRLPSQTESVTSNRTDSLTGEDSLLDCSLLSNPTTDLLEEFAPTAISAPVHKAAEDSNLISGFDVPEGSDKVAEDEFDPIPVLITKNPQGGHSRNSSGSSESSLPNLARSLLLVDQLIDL
T2 sequence (Q2M2I8 1-822 limits assumed): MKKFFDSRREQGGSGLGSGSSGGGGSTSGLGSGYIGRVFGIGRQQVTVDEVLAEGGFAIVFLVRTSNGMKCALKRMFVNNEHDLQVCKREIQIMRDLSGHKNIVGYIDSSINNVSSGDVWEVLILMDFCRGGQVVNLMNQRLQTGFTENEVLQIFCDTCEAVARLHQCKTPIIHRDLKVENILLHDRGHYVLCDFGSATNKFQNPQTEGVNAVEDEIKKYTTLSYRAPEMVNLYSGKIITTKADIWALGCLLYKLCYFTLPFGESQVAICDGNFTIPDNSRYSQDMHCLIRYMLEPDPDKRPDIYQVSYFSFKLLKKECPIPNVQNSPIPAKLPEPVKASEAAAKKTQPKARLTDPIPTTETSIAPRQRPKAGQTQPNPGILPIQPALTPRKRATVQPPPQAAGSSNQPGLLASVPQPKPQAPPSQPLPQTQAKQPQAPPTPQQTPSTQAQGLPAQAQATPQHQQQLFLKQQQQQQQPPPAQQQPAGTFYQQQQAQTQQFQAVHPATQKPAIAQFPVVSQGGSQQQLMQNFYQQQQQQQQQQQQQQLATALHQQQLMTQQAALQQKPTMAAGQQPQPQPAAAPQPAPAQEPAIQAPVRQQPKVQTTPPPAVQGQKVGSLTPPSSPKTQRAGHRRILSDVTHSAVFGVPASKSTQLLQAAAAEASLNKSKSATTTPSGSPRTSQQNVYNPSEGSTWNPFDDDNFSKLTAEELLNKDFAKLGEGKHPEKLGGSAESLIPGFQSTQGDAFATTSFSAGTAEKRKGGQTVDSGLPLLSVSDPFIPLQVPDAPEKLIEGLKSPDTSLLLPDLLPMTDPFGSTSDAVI

`CC(C)C[C@H](N)COc1cc2c(cc1F)c1ccncc1c(=O)n2C` [Example 14, (S)-8-((2-amino-4-methylpentyl)oxy)-9-fluoro-6-methylbenzo[c][2,7]naphthyridin-5(6H)-one] registered a Response in the experiment on mice (30 mg/kg po, relative to gabapentin 200 mg/kg = 100% response) of 62%. Consider `Cc1nccc2c1c(=O)n(C)c1cc(OC[C@@H](N)CC(C)C)c(Br)cc21` [Example 122, (S)-8-((2-amino-4-methylpentyl)oxy)-9-bromo-4,6-dimethylbenzo[c][2,7]naphthyridin-5(6H)-one], for which the concentration for half-maximal inhibition (IC50) (on GST-Xa-hAAK1 (given as IC50 range); in experiment [1] (setting [2])) was 1 to 10 nM throughout. For `Cn1c(=O)c2cnccc2c2cc(C#N)c(OCC(N)CCC(F)(F)F)cc21` (stereo not drawn) [Example 126, 8-((2-amino-5,5,5-trifluoropentyl)oxy)-6-methyl-5-oxo-5,6-dihydrobenzo[c][2,7]naphthyridine-9-carbonitrile], the IC50 on GST-Xa-hAAK1 (3 hours at room temperature) was determined as 16 nM; in experiment [1] (setting [3]), 56 nM. Consider `Cc1nccc2c1c(=O)n(C)c1cc(OC[C@@H](N)CC(C)C)c(C(C)C)cc21` [Example 129, (S)-8-((2-amino-4-methylpentyl)oxy)-9-isopropyl-4,6-dimethylbenzo[c][2,7]naphthyridin-5(6H)-one], for which the IC50 (at GST-Xa-hAAK1 (given as IC50 range); in experiment [1] (setting [2])) was 1 to 10 nM throughout.

With `Cc1nccc2c1c(=O)n(C)c1cc(OC[C@H](N)CC(C)C)c(Br)cc21` [Example 133, (R)-8-((2-amino-4-methylpentyl)oxy)-9-bromo-4,6-dimethylbenzo[c][2,7]naphthyridin-5(6H)-one], the IC50 on GST-Xa-hAAK1 (3 hours at room temperature) came to 0.4 nM; in experiment [1] (setting [3]), 2.3 nM.

For `Cn1c(=O)c2cnccc2c2cc(Br)c(OCC(N)CC(F)(F)F)cc21` (stereo not drawn) [Example 140, 8-(2-amino-4,4,4-trifluorobutoxy)-9-bromo-6-methylbenzo[c][2,7]naphthyridin-5(6H)-one], the IC50 at GST-Xa-hAAK1 (given as IC50 range) was 1 to 10 nM; in experiment [1] (setting [2]), 10 to 100 nM.

As for `Cn1c(=O)c2cnccc2c2cc(Cl)c(OCC(N)CC(F)(F)F)cc21` (stereo not drawn) [Example 141, 8-(2-amino-4,4,4-trifluorobutoxy)-9-chloro-6-methylbenzo[c][2,7]naphthyridin-5(6H)-one], the 50% inhibitory concentration (IC50) on GST-Xa-hAAK1 (given as IC50 range) lay in the range of 1 to 10 nM; in experiment [1] (setting [2]), 10 to 100 nM. The corresponding values for `CC(C)C[C@H](N)COc1cc2[nH]c(=O)c3cnccc3c2cc1Cl` [Example 142, (S)-8-((2-amino-4-methylpentyl)oxy)-9-chlorobenzo[c][2,7]naphthyridin-5(6H)-one] are less than 1 nM and 1 to 10 nM. The like results for `Cc1nccc2c1c(=O)n(CCO)c1cc(OC[C@@H](N)CC(C)C)c(Br)cc21` [Example 143, (S)-8-((2-amino-4-methylpentyl)oxy)-9-bromo-6-(2-hydroxyethyl)-4-methylbenzo[c][2,7]naphthyridin-5(6H)-one] were, in that order, 1 to 10 nM and 1 to 10 nM. The corresponding values for `CNC(=O)Nc1nccc2c1c(=O)n(C)c1cc(OC[C@@H](N)CC(C)C)c(F)cc21` [Example 145, (S)-1-(8-((2-amino-4-methylpentyl)oxy)-9-fluoro-6-methyl-5-oxo-5,6-dihydrobenzo[c][2,7]naphthyridin-4-yl)-3-methylurea] are 10 to 100 nM and 10 to 100 nM. Consider `CC(C)NCC(O)COc1cc2c(cc1Br)c1ccncc1c(=O)n2C` (stereo not drawn) [Example 148, 9-bromo-8-(2-hydroxy-3-(isopropylamino)propoxy)-6-methylbenzo[c][2,7]naphthyridin-5(6H)-one], for which the IC50 (at GST-Xa-hAAK1 (given as IC50 range); in experiment [1] (setting [2])) was 100 to 2000 nM in each case. `NCC1(CC(=O)O)CCCCC1` [Gabapentin]: the Response in the experiment on mice (setting [4]) amounted to 60%; with mice (200 mg/kg sc, considered a 100% response) it was 100%. `CC(C)C[C@H](CN)CC(=O)O` [Pregabalin, pregabalin] returned a Response in the experiment on mice (setting [4]) of 90%.
